# Data reported in ChEMBL document CHEMBL1177713, “Discovery of 3-[2-(imidazo[1,2-b]pyridazin-3-yl)ethynyl]-4-methyl-N-{4-[(4-methylpiperazin-1-yl)methyl]-3-(trifluoromethyl)phenyl}benzamide (AP24534), a potent, orally active pan-inhibitor of breakpoint cluster region-abelson (BCR-ABL) kinase including the T315I gatekeeper mutant” (J Med Chem, 2010).
# System: not listed separately
# Assay: Oral bioavailability in CD rat at 15 mg/kg by LC-MS/MS analysis
# Format: ADME, organism-based
# Settings: in vivo
row,bioavailability [%],SMILES
1,5.5,Cc1ccc(C(=O)Nc2cc(-n3ccnc3)cc(C(F)(F)F)c2)cc1C#Cc1cnc2c(N)cccn12
2,42.4,Cc1ccc(C(=O)Nc2cc(-n3ccnc3)cc(C(F)(F)F)c2)cc1C#Cc1cnc2ccccn12
3,79.2,CN1CCN(Cc2ccc(NC(=O)c3ccc(Cl)c(C#Cc4cnc5cccnn45)c3)cc2C(F)(F)F)CC1
4,18.2,Cc1ccc(C(=O)Nc2ccc(CN3CCN(C)CC3)c(C(F)(F)F)c2)cc1C#Cc1cnc2cccnn12 [PONATINIB]

# System: not listed separately
# Assay: Volume of distribution in CD rat at 5 mg/kg, iv by LC-MS/MS analysis
# Format: ADME, organism-based
# Design: dose 5 mg/kg, route intravenous
# Settings: in vivo
row,Vd [L/kg],SMILES
1,15.9,Cc1ccc(C(=O)Nc2ccc(CN3CCN(C)CC3)c(C(F)(F)F)c2)cc1C#Cc1cnc2nc[nH]c2c1
2,8.2,Cc1ccc(C(=O)Nc2cc(-n3ccnc3)cc(C(F)(F)F)c2)cc1C#Cc1cnc2c(N)cccn12
3,1,Cc1ccc(C(=O)Nc2cc(-n3ccnc3)cc(C(F)(F)F)c2)cc1C#Cc1cnc2ccccn12
4,16.7,CN1CCN(Cc2ccc(NC(=O)c3ccc(Cl)c(C#Cc4cnc5cccnn45)c3)cc2C(F)(F)F)CC1
5,9.7,Cc1ccc(C(=O)Nc2ccc(CN3CCN(C)CC3)c(C(F)(F)F)c2)cc1C#Cc1cnc2cccnn12 [PONATINIB]

# System: not listed separately
# Assay: Half life in CD rat at 5 mg/kg, iv by LC-MS/MS analysis
# Format: ADME, organism-based
# Design: dose 5 mg/kg, route intravenous
# Settings: in vivo
row,half-life [h],SMILES
1,5.4,Cc1ccc(C(=O)Nc2ccc(CN3CCN(C)CC3)c(C(F)(F)F)c2)cc1C#Cc1cnc2nc[nH]c2c1
2,15.8,Cc1ccc(C(=O)Nc2cc(-n3ccnc3)cc(C(F)(F)F)c2)cc1C#Cc1cnc2c(N)cccn12
3,9.1,Cc1ccc(C(=O)Nc2cc(-n3ccnc3)cc(C(F)(F)F)c2)cc1C#Cc1cnc2ccccn12
4,9.9,CN1CCN(Cc2ccc(NC(=O)c3ccc(Cl)c(C#Cc4cnc5cccnn45)c3)cc2C(F)(F)F)CC1
5,10.2,Cc1ccc(C(=O)Nc2ccc(CN3CCN(C)CC3)c(C(F)(F)F)c2)cc1C#Cc1cnc2cccnn12 [PONATINIB]

# System: not listed separately
# Assay: Half life in mouse at 30 mg/kg, po by LC-MS/MS analysis
# Settings: in vivo
row,half-life [h],SMILES
1,2.9,CN1CCN(Cc2ccc(NC(=O)c3ccc(Cl)c(C#Cc4cnc5cccnn45)c3)cc2C(F)(F)F)CC1

# System: BaF3
# Assay: cells
# Settings: Mus musculus, BaF3, 72 h
# Description: Antiproliferative activity against mouse BA/F3 cells expressing wild type ABL after 3 days by MTS assay in presence of 340 uM human serum albumin
row,IC50 [nM],SMILES
1,51,Cc1ccc(C(=O)Nc2cc(-n3ccnc3)cc(C(F)(F)F)c2)cc1C#Cc1cnc2ccccn12

# System: not listed separately
# Assay: Tmax in CD rat at 15 mg/kg, po by LC-MS/MS analysis
# Format: ADME, organism-based
# Design: dose 15 mg/kg, route oral
# Settings: in vivo
row,Tmax [h],SMILES
1,6,Cc1ccc(C(=O)Nc2ccc(CN3CCN(C)CC3)c(C(F)(F)F)c2)cc1C#Cc1cnc2nc[nH]c2c1
2,1,Cc1ccc(C(=O)Nc2cc(-n3ccnc3)cc(C(F)(F)F)c2)cc1C#Cc1cnc2c(N)cccn12
3,6,Cc1ccc(C(=O)Nc2cc(-n3ccnc3)cc(C(F)(F)F)c2)cc1C#Cc1cnc2ccccn12
4,6,CN1CCN(Cc2ccc(NC(=O)c3ccc(Cl)c(C#Cc4cnc5cccnn45)c3)cc2C(F)(F)F)CC1
5,6,Cc1ccc(C(=O)Nc2ccc(CN3CCN(C)CC3)c(C(F)(F)F)c2)cc1C#Cc1cnc2cccnn12 [PONATINIB]

# System: not listed separately
# Assay: AUC (0 to 24 hrs) in mouse at 30 mg/kg, po by LC-MS/MS analysis
# Settings: plasma
row,AUC(0-t) at 24 h [ng·h/mL],SMILES
1,6080,CN1CCN(Cc2ccc(NC(=O)c3ccc(Cl)c(C#Cc4cnc5cccnn45)c3)cc2C(F)(F)F)CC1

# System: BaF3
# Assay: cells
# Settings: Mus musculus, BaF3, 72 h
# Remark: another data set of the same source
# Description: Antiproliferative activity against mouse BA/F3 cells expressing ABL T315I mutant after 3 days by MTS assay
row,IC50 [nM],SMILES
1,42,Cc1ccc(C(=O)Nc2ccc(CN3CCN(C)CC3)c(C(F)(F)F)c2)cc1C#Cc1cnc2nc[nH]c2c1
2,72,Cc1ccc(C(=O)Nc2cc(-n3ccnc3)cc(C(F)(F)F)c2)cc1C#Cc1cnc2c(N)cccn12
3,471,Cc1ccc(C(=O)Nc2cc(-n3ccnc3)cc(C(F)(F)F)c2)cc1C#Cc1cnc2ccccn12
4,8.6,CN1CCN(Cc2ccc(NC(=O)c3ccc(Cl)c(C#Cc4cnc5cccnn45)c3)cc2C(F)(F)F)CC1
5,8.8,Cc1ccc(C(=O)Nc2ccc(CN3CCN(C)CC3)c(C(F)(F)F)c2)cc1C#Cc1cnc2cccnn12 [PONATINIB]

# System: not listed separately
# Assay: Half life in CD rat at 15 mg/kg, po by LC-MS/MS analysis
# Format: ADME, organism-based
# Design: dose 15 mg/kg, route oral
# Settings: in vivo
row,half-life [h],SMILES
1,5.2,Cc1ccc(C(=O)Nc2cc(-n3ccnc3)cc(C(F)(F)F)c2)cc1C#Cc1cnc2c(N)cccn12
2,21.6,Cc1ccc(C(=O)Nc2cc(-n3ccnc3)cc(C(F)(F)F)c2)cc1C#Cc1cnc2ccccn12
3,20.2,CN1CCN(Cc2ccc(NC(=O)c3ccc(Cl)c(C#Cc4cnc5cccnn45)c3)cc2C(F)(F)F)CC1
4,11,Cc1ccc(C(=O)Nc2ccc(CN3CCN(C)CC3)c(C(F)(F)F)c2)cc1C#Cc1cnc2cccnn12 [PONATINIB]

# System: not listed separately
# Assay: Clearance in CD rat at 5 mg/kg, iv by LC-MS/MS analysis
# Format: ADME, organism-based
# Design: dose 5 mg/kg, route intravenous
# Settings: in vivo
row,clearance [mL/min/kg],SMILES
1,34,Cc1ccc(C(=O)Nc2ccc(CN3CCN(C)CC3)c(C(F)(F)F)c2)cc1C#Cc1cnc2nc[nH]c2c1
2,6,Cc1ccc(C(=O)Nc2cc(-n3ccnc3)cc(C(F)(F)F)c2)cc1C#Cc1cnc2c(N)cccn12
3,1.33,Cc1ccc(C(=O)Nc2cc(-n3ccnc3)cc(C(F)(F)F)c2)cc1C#Cc1cnc2ccccn12
4,19.7,CN1CCN(Cc2ccc(NC(=O)c3ccc(Cl)c(C#Cc4cnc5cccnn45)c3)cc2C(F)(F)F)CC1
5,10.8,Cc1ccc(C(=O)Nc2ccc(CN3CCN(C)CC3)c(C(F)(F)F)c2)cc1C#Cc1cnc2cccnn12 [PONATINIB]

# System: BaF3
# Assay: cells
# Settings: Mus musculus, BaF3, 72 h
# Remark: another data set of the same source
# Description: Antiproliferative activity against mouse BA/F3 cells expressing wild type ABL after 3 days by MTS assay
row,IC50 [nM],SMILES
1,3.4,Cc1ccc(C(=O)Nc2ccc(CN3CCN(C)CC3)c(C(F)(F)F)c2)cc1C#Cc1cnc2nc[nH]c2c1
2,8.6,Cc1ccc(C(=O)Nc2cc(-n3ccnc3)cc(C(F)(F)F)c2)cc1C#Cc1cnc2c(N)cccn12
3,8,Cc1ccc(C(=O)Nc2cc(-n3ccnc3)cc(C(F)(F)F)c2)cc1C#Cc1cnc2ccccn12
4,2.5,CN1CCN(Cc2ccc(NC(=O)c3ccc(Cl)c(C#Cc4cnc5cccnn45)c3)cc2C(F)(F)F)CC1
5,1.2,Cc1ccc(C(=O)Nc2ccc(CN3CCN(C)CC3)c(C(F)(F)F)c2)cc1C#Cc1cnc2cccnn12 [PONATINIB]

# System: Rattus norvegicus
# Assay: Dose normalized AUC (0 to 24 hrs) in CD rat at 15 mg/kg, po by LC-MS/MS analysis
# Format: ADME, organism-based
# Design: time < 24 hr, dose 15 mg/kg, route oral
# Settings: in vivo
row,AUC [ng·h/mL/mg/kg],SMILES
1,151.9,Cc1ccc(C(=O)Nc2cc(-n3ccnc3)cc(C(F)(F)F)c2)cc1C#Cc1cnc2c(N)cccn12
2,5745.9,Cc1ccc(C(=O)Nc2cc(-n3ccnc3)cc(C(F)(F)F)c2)cc1C#Cc1cnc2ccccn12
3,673.8,CN1CCN(Cc2ccc(NC(=O)c3ccc(Cl)c(C#Cc4cnc5cccnn45)c3)cc2C(F)(F)F)CC1
4,278.5,Cc1ccc(C(=O)Nc2ccc(CN3CCN(C)CC3)c(C(F)(F)F)c2)cc1C#Cc1cnc2cccnn12 [PONATINIB]

# Same assay, conditions: in vivo, BLD = below limit of detection
row,AUC,SMILES
1,BLD,Cc1ccc(C(=O)Nc2ccc(CN3CCN(C)CC3)c(C(F)(F)F)c2)cc1C#Cc1cnc2nc[nH]c2c1

# System: BaF3
# Assay: cells
# Settings: Mus musculus, BaF3, 72 h
# Remark: another data set of the same source
# Description: Antiproliferative activity against mouse BA/F3 cells after 3 days by MTS assay
row,IC50 [nM],SMILES
1,890,Cc1ccc(C(=O)Nc2ccc(CN3CCN(C)CC3)c(C(F)(F)F)c2)cc1C#Cc1cnc2nc[nH]c2c1
2,10000,Cc1ccc(C(=O)Nc2cc(-n3ccnc3)cc(C(F)(F)F)c2)cc1C#Cc1cnc2c(N)cccn12
3,9840,Cc1ccc(C(=O)Nc2cc(-n3ccnc3)cc(C(F)(F)F)c2)cc1C#Cc1cnc2ccccn12
4,1870,CN1CCN(Cc2ccc(NC(=O)c3ccc(Cl)c(C#Cc4cnc5cccnn45)c3)cc2C(F)(F)F)CC1

# System: not listed separately
# Assay: Cmax in CD rat at 15 mg/kg, po by LC-MS/MS analysis
# Format: ADME, organism-based
# Design: dose 15 mg/kg, route oral
# Settings: CD, in vivo
row,Cmax [ng/mL],SMILES
1,32.7,Cc1ccc(C(=O)Nc2ccc(CN3CCN(C)CC3)c(C(F)(F)F)c2)cc1C#Cc1cnc2nc[nH]c2c1
2,234,Cc1ccc(C(=O)Nc2cc(-n3ccnc3)cc(C(F)(F)F)c2)cc1C#Cc1cnc2c(N)cccn12
3,2350,Cc1ccc(C(=O)Nc2cc(-n3ccnc3)cc(C(F)(F)F)c2)cc1C#Cc1cnc2ccccn12
4,302,CN1CCN(Cc2ccc(NC(=O)c3ccc(Cl)c(C#Cc4cnc5cccnn45)c3)cc2C(F)(F)F)CC1

# System: not listed separately
# Assay: Cmax in mouse at 30 mg/kg, po by LC-MS/MS analysis
# Settings: in vivo
row,Cmax [ng/mL],SMILES
1,441,CN1CCN(Cc2ccc(NC(=O)c3ccc(Cl)c(C#Cc4cnc5cccnn45)c3)cc2C(F)(F)F)CC1
